{"source": "patent US20220273658A1", "about": "“SMALL MOLECULE LIVER X RECEPTOR MODULATORS AND USES THEREOF” (University of Houston System, priority 2019, published 2022)", "key": {"[1]": {"system": "PDAC cell lines", "test": "tetrazolium salt reduction (WST) assay in PDAC cell lines", "assay_type": "cell-based, human", "conditions": "WST screen, three human pancreatic cancer cell lines", "method": "To determine the effects of LXR ligands on PDAC cell proliferation, cells were treated with synthetic LXR agonist GW3965 and live cells were quantified using trypan blue exclusion assays. […] FIGS. 8A, 8B, and 8C show dose-dependent decreases in cell proliferation in BxPC-3, Mia-PaCa-2, and PANC-1, respectively upon treatment with increasing GW3965 concentrations. […] Clonogenic assays were also employed to evaluate the effects of long-term LXR ligand treatment on cell proliferation and colony formation. […] These findings indicate that LXRs are involved in PDAC cell proliferation and targeting LXRs with ligands perturb their normal functions in cell proliferation.\nThe initial identification and subsequent characterization of the two novel LXR ligands and their derivative compounds was carried out in screens in three human pancreatic cancer cell and one non-transformed human pancreatic epithelial cell line in three or more replicate experiments for each cell line using the WST tetrazolium salt reduction assays."}, "[2]": {"system": "KPC tumor cells", "test": "growth of KPC tumor cells from mouse model of PDAC", "assay_type": "cell-based", "text": "The effects of the ligands and derivatives on the growth of PDAC cells were further validated by cell counting and clonogenic assays."}, "[3]": {"system": "human PDAC cell lines", "test": "cell viability response curves with increasing concentrations", "assay_type": "cell-based"}, "[4]": {"system": "MCF-7", "test": "expression of LXR target genes in breast cancer cells", "assay_type": "cell-based", "conditions": "MCF-7, ER-positive", "text": "(§1) The inhibitory effects of LXR ligands in breast cancer cells have been shown previously. […] The observed decreases in LXR protein levels were not affected by proteasome inhibitor MG132."}, "[5]": {"system": "MDA-MB-231", "test": "expression of LXR target genes in breast cancer cells", "assay_type": "cell-based", "conditions": "MDA-MB-231, triple-negative", "text": "as §1"}, "[6]": {"system": "MDA-MB-231 cells", "test": "breast cancer cell proliferation", "assay_type": "cell-based", "text": "as §1"}, "[7]": {"system": "LXR in MDA-MB-231 cells", "test": "western blot of LXR protein levels", "assay_type": "cell-based", "text": "as §1"}, "[8]": {"system": "LXR proteins in MCF-7 cells", "test": "western blot of LXR protein levels", "assay_type": "cell-based", "text": "as §1"}, "[9]": {"system": "LXR ligand-binding domain", "test": "TR-FRET assay of co-activator and co-repressor peptide recruitment", "assay_type": "biochemical", "method": "To elucidate mechanisms of inverse agonism by the novel ligands, TR-FRET experiments were conducted to determine the effects of 1E5 and 3A4 on the recruitment of NR co-activators and co-repressors. […] In addition to their functions as inverse agonists, extended treatments with 1E5 and 3A4 also destabilized or decreased LXR proteins.\nThe synthesis and characterization of KD-01-39, a derivative of 3A4, have not been described previously."}, "[10]": {"system": "pancreatic cancer cells", "test": "metabolomic analysis using mass spectroscopy in pancreatic cancer cells", "assay_type": "cell-based, human", "method": "To further characterize the mechanisms of action of novel LXR modulators 1E5 and 3A4, metabolomic and transcriptomic analysis of pancreatic cancer cells were conducted in response to treatment. […] PDAC tumors have altered metabolism to support its growth and survival. Previous studies have reported that Kras upregulates the non-canonical use of glutamine to maintain NADPH/NADP+ ratio which in turn regulates redox homeostasis. This unconventional use of glutamine by PDAC cells fuel cancer cell proliferation and survival. Glutamine metabolism in PDAC has two unique functions: 1. Glutamine-derived Glutamate is used for glutathione (GSH) biosynthesis. 2. Glutamine facilitates generation of reducing equivalents in the form of NADPH. In PDAC mitochondria, glutamine is converted to glutamate by glutaminase enzyme (GLS1). This glutamine derived glutamate is conventionally converted to alpha-ketoglutarate by glutamate dehydrogenase (GLUD1) to fuel citric acid cycle. However, in PDAC cells glutamate is converted to aspartate in cytosol which is converted to malic acid and NADPH is produced during this process. This process is essential to maintain redox homeostasis in the tumor. However, this non-canonical use of glutamine is dispensable in non-malignant cells. Therefore, targeting GLS1 to decrease the bioavailability of glutamate to act as source of nitrogen and carbon for the synthesis of amino acids and nucleic acids is a viable strategy to target PDAC tumors. […] The effect of 1E5 is similar to BPTES, a potent GLS1 inhibitor.\nTCA cycle intermediates act as anaplerotic substrate for gluconeogenesis and lipogenesis. […] GOT2 converts glutamine-derived glutamate to alpha-KG. During this process oxaloacetate is converted to aspartate which is required to maintain redox homeostasis. Studies have shown that inhibition of GOT2 in PDAC promotes senescence.\nTo determine if 1E5 and 3A4 can induce apoptosis, PDAC cells were treated with the LXR ligands and subjected to pro-apoptotic caspase cleavage analysis. […] Metabolomic profiling following treatments with the two ligands indicated the activation of two distinct cell death mechanisms. Ferroptosis is a non-apoptotic form of cell death which is characterized by accumulation of lipid peroxides by loss of glutathione peroxidase 4 (GPX4) activity. It can also be induced by accumulation of intracellular iron and depletion of reduced glutathione (GSH). GPX4 is an anti-oxidant enzyme involved in conversion of PUFA peroxides to PUFA alcohols. GSH is a critical cofactor of GPX4 and acts as a reducing agent to reduce the lipid peroxides. Therefore, direct inhibition of GPX4 activity or reduction in GSH levels trigger ferroptosis. The second mechanism of inducing ferroptosis is accumulation of polyunsaturated fatty acids (PUFAs) in cells. Studies have shown that PUFAs are the most susceptible lipids to peroxidation.\nExpression profiles of ferroptosis genes in RNAseq data following 1E5 treatment were also consistent with its pro-ferroptotic actions. […] Polyamines are amino-acid derived polycationic alkylamines that are required for the growth of cells. SAT1 catalyzes the acetylation of spermidine and spermine to form N-acetylspermidine and N-acetylspermine respectively. […] SAT1 induces ferroptosis by upregulating the peroxidation of PUFA arachidonic acid. Ceramides are sphingolipids consisting of sphingosine and fatty acid acyl chain. Cellular stress leads to upregulation of ceramide synthesis which mediate caspase-dependent apoptosis. Accumulation of ceramides/hexosylceramides in the mitochondria leads to the formation of channel like structures in the mitochondrial outer membrane which increases the permeability of pro-apoptotic proteins such as cytochrome c. ER stress is also known to activate de-novo synthesis of ceramides and induce apoptosis by increasing the flow of Ca ions and upregulating the unfolded protein stress response. […]"}}}
{"smiles": "O=c1cc(-c2ccccc2)nc(Nc2cccc(C(F)(F)F)c2)[nH]1", "note": "[Compound 1E5, 6-phenyl-2-{[3-(trifluoromethyl)phenyl]amino}-3,4-dihydropyrimidin-4-one]", "values": [{"measurement": "human pancreatic cancer cells growth", "setting": "[1]", "value": "effective in inhibiting human pancreatic cancer cells growth"}, {"measurement": "growth of KPC tumor cells", "setting": "[2]", "value": "blocked the growth"}, {"measurement": "potency in response curves compared to GW3965", "setting": "[3]", "value": "more potent activity as compared to GW3965"}, {"measurement": "expression of LXR target genes", "setting": "[4]", "value": "generally down-regulated"}, {"measurement": "expression of LXR target genes", "setting": "[5]", "value": "generally down-regulated"}, {"measurement": "proliferation of MDA-MB-231 cells", "setting": "[6]", "value": "inhibited"}, {"measurement": "LXR protein levels (degradation)", "setting": "[7]", "value": "degraded LXR"}, {"measurement": "LXR protein levels (degradation)", "setting": "[8]", "value": "act as degraders of LXR proteins"}, {"measurement": "co-activator peptide binding to LXR ligand-binding domain", "setting": "[9]; co-activator (D22) peptide", "value": "did not affect co-activator peptide binding"}, {"measurement": "binding of NCOR and SMRT co-repressor peptides", "setting": "[9]; co-repressor (NCOR and SMRT-ID2) peptides", "value": "increased the binding"}, {"measurement": "glutamate levels (mass spectroscopy)", "setting": "[10]", "value": "decreases in glutamate levels"}, {"measurement": "glutamine biosynthesis", "setting": "[10]", "value": "inhibited glutamine biosynthesis"}, {"measurement": "level of glutathione (GSH)", "setting": "[10]", "value": "decreased level of GSH"}, {"measurement": "levels of TCA cycle intermediates (alpha-KG, citrate and fumarate)", "setting": "[10]", "value": "downregulated"}, {"measurement": "levels of asparagine and aspartate", "setting": "[10]", "value": "decreased the levels"}, {"measurement": "levels of polyamine metabolites", "setting": "[10]; PANC-1", "value": "depletion of spermidine and spermine and accumulation of putrescine, N-acetylspermidine and N-acetylspermine"}, {"measurement": "levels of polyunsaturated fatty acids (PUFAs)", "setting": "[10]; PANC-1", "value": "increased levels of PUFAs"}]}
